pIC50: −log10 of the molar value.
Experiments:
AAK1 [1] = biological target: T1, AAK1 (Homo sapiens, UniProt Q2M2I8); assay: HEK281 cell-based assay (CBA); conditions: HEK293F cells transfected with full length human AAK1 and AP2M1; phospho-mu2 Western blot; 3 hours incubation
T1 construct: NP_055726.2
In short: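 HEK293F cells co-transfected with full-length human AAK1/HA and Flag-AP2M1 (mu2), then treated in suspension with compounds (5 concentrations, 3-fold steps) in DMEM+0.5% FBS for 3 hours at 37° C. Phospho-mu2 and total mu2 (anti-Flag) assessed by Western blot.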

AAK1 [2] = biological target: T1, AAK1; assay: P81 filter plate assay; assay type: biochemical; conditions: full-length human AAK1, Mu2 substrate, 33P-ATP
In short: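 Full-length human AAK1 (0.2 nM, 2×) was pre-incubated 10 min at RT with compounds (top concentration 96 μM in the dilution plate), then reacted 1 h at RT with full-length human Mu2 (0.2 μM, 2×), cold ATP (2 μM, 2×) and ³³P-ATP. Reactions were stopped with phosphoric acid and captured on P81 filters for scintillation counting.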

T1 sequence (Q2M2I8 1-863 isoform Q2M2I8-2): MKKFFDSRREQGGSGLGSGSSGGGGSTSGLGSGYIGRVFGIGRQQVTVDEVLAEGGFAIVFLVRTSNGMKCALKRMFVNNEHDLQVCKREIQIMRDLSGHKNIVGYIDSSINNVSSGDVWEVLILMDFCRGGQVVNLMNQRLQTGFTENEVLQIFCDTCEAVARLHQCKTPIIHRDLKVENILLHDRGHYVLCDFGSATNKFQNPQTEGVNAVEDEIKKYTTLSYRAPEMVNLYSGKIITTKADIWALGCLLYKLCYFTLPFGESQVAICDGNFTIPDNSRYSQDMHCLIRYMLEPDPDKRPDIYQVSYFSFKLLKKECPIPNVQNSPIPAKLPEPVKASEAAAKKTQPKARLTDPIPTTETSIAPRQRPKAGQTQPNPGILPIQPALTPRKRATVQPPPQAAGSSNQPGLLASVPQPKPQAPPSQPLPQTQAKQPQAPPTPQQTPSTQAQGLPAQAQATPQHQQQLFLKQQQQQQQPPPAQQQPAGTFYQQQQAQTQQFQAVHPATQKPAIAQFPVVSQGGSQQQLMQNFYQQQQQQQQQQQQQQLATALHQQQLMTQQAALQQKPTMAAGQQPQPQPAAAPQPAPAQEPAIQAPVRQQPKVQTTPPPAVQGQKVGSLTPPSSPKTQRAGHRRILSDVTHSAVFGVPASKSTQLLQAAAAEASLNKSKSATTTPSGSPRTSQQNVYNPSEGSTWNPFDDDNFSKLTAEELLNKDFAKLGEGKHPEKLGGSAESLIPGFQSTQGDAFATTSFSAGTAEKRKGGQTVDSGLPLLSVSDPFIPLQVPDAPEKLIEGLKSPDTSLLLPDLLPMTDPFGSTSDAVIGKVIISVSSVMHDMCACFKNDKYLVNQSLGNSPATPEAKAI

With `CN(CCNc1ccn2ncc(-c3cccs3)c2n1)C(=O)OC(C)(C)C` [Example 5.6.4, Methyl-[2-(3-thiophen-2-yl-pyrazolo[1,5-a]pyrimidin-5-ylamino)-ethyl]-carbamic acid tert-butyl ester] the melting point was 140 to 141 °C.

With `COc1ncccc1-c1cnn2ccc(N3CCN(C(=O)OC4COC4)CC3)nc12` [oxetan-3-yl 4-(3-(2-methoxypyridin-3-yl)pyrazolo[1,5-a]pyrimidin-5-yl)piperazine-1-carboxylate] the pIC50 (AAK1 [1]) was at least 8.00 and the pIC50 (AAK1 [2]) was at least 8.00.

With `COc1ncc(-c2cnn3ccc(N4CCN(C(=O)OC(C)C)CC4)nc23)c(OC)n1` [isopropyl 4-(3-(2,4-dimethoxypyrimidin-5-yl)pyrazolo[1,5-a]pyrimidin-5-yl)piperazine-1-carboxylate] the pIC50 (AAK1 [1]) was at least 7.00 and the pIC50 (AAK1 [2]) was at least 8.00.

— patent publication US9403832B2, “Pyrazolo[1,5-a]pyrimidine-based compounds, compositions comprising them, and methods of their use” (Lexicon Pharmaceuticals, Inc., priority 2012, dated 2016)
